Data from patent US20200017496A1 (priority 2017, published 2020).
Read-outs that look alike come from different tables or passages of the source.

Columns and labels:
Assay in all cases: MIC of compounds alone and combined with antibacterials, broth microdilution (CLSI)
Format in all cases: cell-based
[1] = tested on: Citrobacter freundii (CFR) isolates; conditions: for MIC: Citrobacter freundii, ATB alone, read-out: MIC
In short: (§1)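 Log-phase bacteria at a final 5·10^5 CFU/mL in cation-adjusted Mueller-Hinton broth were incubated 16-20 h at 35° C in ambient air with compound alone or with an antibacterial. MIC was the lowest concentration preventing visible growth; combination MIC of the antibacterial was read at each compound concentration.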

[2] = tested on: Citrobacter koseri (CKR) isolates; conditions: for MIC: Citrobacter koseri, ATB alone, read-out: MIC
In short: as §1

[3] = tested on: Klebsiella oxytoca (KOX) isolates
In short: as §1

[4] = tested on: Klebsiella pneumoniae (KPN) isolates
In short: as §1

CC(C)(O/N=C(\C(=O)N[C@@H]1C(=O)N2C(C(=O)[O-])=C(C[n+]3ccccc3)CS[C@H]12)c1csc(N)n1)C(=O)O [CAZ, Ceftazidime]
MIC ATB in combination ([1]; CFR UFR10, AF1 @ 4 μg/mL): <=0.25 μg/mL | MIC ATB in combination ([1]; CFR UFR10, AF1 @ 8 μg/mL): <=0.25 μg/mL | MIC ATB in combination ([1]; CFR UFR11, AF1 @ 4 μg/mL): 8 µg/mL | MIC ATB in combination ([1]; CFR UFR11, AF1 @ 8 μg/mL): 0.5 µg/mL | MIC ATB in combination ([1]; CFR UFR83, AF1 @ 4 μg/mL): 32 µg/mL | MIC ATB in combination ([1]; CFR UFR83, AF1 @ 8 μg/mL): 8 µg/mL | MIC ATB in combination ([1]; CFR UFR146, AF1 @ 4 μg/mL): 4 µg/mL | MIC ATB in combination ([1]; CFR UFR146, AF1 @ 8 μg/mL): 2 µg/mL | MIC ATB in combination ([1]; CFR UFR248, AF1 @ 4 μg/mL): <=0.25 μg/mL | MIC ATB in combination ([1]; CFR UFR248, AF1 @ 8 μg/mL): <=0.25 μg/mL | MIC ATB in combination ([1]; CFR UFR249, AF1 @ 4 μg/mL): <=0.25 μg/mL | MIC ATB in combination ([1]; CFR UFR249, AF1 @ 8 μg/mL): <=0.25 μg/mL | MIC ATB in combination ([1]; CFR UFR250, AF1 @ 4 μg/mL): 0.5 µg/mL | MIC ATB in combination ([1]; CFR UFR250, AF1 @ 8 μg/mL): <=0.25 μg/mL | MIC ([1]; strain CFR UFR11 (TEM-1, OXA-1, OXA-48)): 8 µg/mL | MIC ([1]; strain CFR UFR146 (TEM-1, KPC-2)): 32 µg/mL | MIC ATB in combination ([1]; strain CFR UFR253, antibacterial combined with AF1 @ 4 μg/mL): 4 µg/mL | MIC ATB in combination ([1]; strain CFR UFR253, antibacterial combined with AF1 @ 8 μg/mL): 2 µg/mL | MIC ATB in combination ([1]; strain CFR UFR254, antibacterial combined with AF1 @ 4 μg/mL): 0.5 µg/mL | MIC ATB in combination ([1]; strain CFR UFR254, antibacterial combined with AF1 @ 8 μg/mL): <=0.25 μg/mL | MIC ATB in combination ([2]; CKO ROU, AF1 @ 4 μg/mL): <=0.25 μg/mL | MIC ATB in combination ([2]; CKO ROU, AF1 @ 8 μg/mL): <=0.25 μg/mL | MIC ATB in combination ([2]; CKO UFR149, AF1 @ 4 μg/mL): 0.5 µg/mL | MIC ATB in combination ([2]; CKO UFR149, AF1 @ 8 μg/mL): <=0.25 μg/mL | MIC ATB in combination ([2]; CKO UFR150, AF1 @ 4 μg/mL): 4 µg/mL | MIC ATB in combination ([2]; CKO UFR150, AF1 @ 8 μg/mL): 4 µg/mL | MIC ([2]; strain CKO ROU (TEM-1, SHV-12, CTX-M-15, OXA-1, OXA-48)): 1 µg/mL | MIC ([2]; strain CKO UFR150 (TEM-1, OXA-48)): 4 µg/mL | MIC ATB in combination ([3]; KOX UFR21, AF1 @ 4 μg/mL): 2 µg/mL | MIC ATB in combination ([3]; KOX UFR21, AF1 @ 8 μg/mL): <=0.25 μg/mL | MIC ATB in combination ([3]; KOX UFR173, AF1 @ 8 μg/mL): <=0.25 μg/mL | MIC ATB in combination ([3]; KOX UFR223, AF1 @ 4 μg/mL): <=0.25 μg/mL | MIC ATB in combination ([3]; KOX UFR223, AF1 @ 8 μg/mL): <=0.25 μg/mL | MIC ATB in combination ([3]; KOX UFR224, AF1 @ 4 μg/mL): <=0.25 μg/mL | MIC ATB in combination ([3]; KOX UFR224, AF1 @ 8 μg/mL): <=0.25 μg/mL | MIC ([3]; Klebsiella oxytoca, strain KOX UFR173 (OXY2-2), ATB alone, read-out: MIC): 8 µg/mL | MIC ATB in combination ([4]; KPN 6299, AF1 @ 4 μg/mL): 0.5 µg/mL | MIC ATB in combination ([4]; KPN 6299, AF1 @ 8 μg/mL): <=0.25 μg/mL | MIC ATB in combination ([4]; KPN 110376, AF1 @ 4 μg/mL): <=0.25 μg/mL | MIC ATB in combination ([4]; KPN 110376, AF1 @ 8 μg/mL): <=0.25 μg/mL | MIC ATB in combination ([4]; KPN 131119, AF1 @ 4 μg/mL): 0.5 µg/mL | MIC ATB in combination ([4]; KPN 131119, AF1 @ 8 μg/mL): <=0.25 μg/mL | MIC ATB in combination ([4]; KPN 140513, AF1 @ 4 μg/mL): 16 µg/mL | MIC ATB in combination ([4]; KPN 140513, AF1 @ 8 μg/mL): 2 µg/mL | MIC ATB in combination ([4]; KPN 160143, AF1 @ 4 μg/mL): 1 µg/mL | MIC ATB in combination ([4]; KPN 160143, AF1 @ 8 μg/mL): <=0.25 μg/mL | MIC ATB in combination ([4]; KPN 190128, AF1 @ 4 μg/mL): 0.5 µg/mL | MIC ATB in combination ([4]; KPN 190128, AF1 @ 8 μg/mL): <=0.25 μg/mL | MIC ATB in combination ([4]; KPN 190270, AF1 @ 4 μg/mL): 0.5 µg/mL | MIC ATB in combination ([4]; KPN 190270, AF1 @ 8 μg/mL): <=0.25 μg/mL | MIC ATB in combination ([4]; KPN 190425, AF1 @ 4 μg/mL): <=0.25 μg/mL | MIC ATB in combination ([4]; KPN 190425, AF1 @ 8 μg/mL): <=0.25 μg/mL | MIC ATB in combination ([4]; KPN 190551, AF1 @ 4 μg/mL): <=0.25 μg/mL | MIC ATB in combination ([4]; KPN 190551, AF1 @ 8 μg/mL): <=0.25 μg/mL | MIC ATB in combination ([4]; KPN 200047, AF1 @ 4 μg/mL): <=0.25 μg/mL | MIC ATB in combination ([4]; KPN 200047, AF1 @ 8 μg/mL): <=0.25 μg/mL | MIC ATB in combination ([4]; KPN 200327, AF1 @ 4 μg/mL): <=0.25 μg/mL | MIC ATB in combination ([4]; KPN 200327, AF1 @ 8 μg/mL): <=0.25 μg/mL | MIC ATB in combination ([4]; KPN 260251, AF1 @ 4 μg/mL): 1 µg/mL | MIC ATB in combination ([4]; KPN 260251, AF1 @ 8 μg/mL): <=0.25 μg/mL | MIC ATB in combination ([4]; KPN 260252, AF1 @ 4 μg/mL): 32 µg/mL | MIC ATB in combination ([4]; KPN 260252, AF1 @ 8 μg/mL): 8 µg/mL | MIC ATB in combination ([4]; KPN 260376, AF1 @ 4 μg/mL): <=0.25 μg/mL | MIC ATB in combination ([4]; KPN 260376, AF1 @ 8 μg/mL): <=0.25 μg/mL | MIC ATB in combination ([4]; KPN 270077, AF1 @ 4 μg/mL): <=0.25 μg/mL | MIC ATB in combination ([4]; KPN 270077, AF1 @ 8 μg/mL): <=0.25 μg/mL | MIC ATB in combination ([4]; KPN 700603, AF1 @ 4 μg/mL): 1 µg/mL | MIC ATB in combination ([4]; KPN 700603, AF1 @ 8 μg/mL): <=0.25 μg/mL | MIC ATB in combination ([4]; KPN ARA, AF1 @ 4 μg/mL): <=0.25 μg/mL | MIC ATB in combination ([4]; KPN ARA, AF1 @ 8 μg/mL): <=0.25 μg/mL | MIC ATB in combination ([4]; KPN BAA-1898, AF1 @ 4 μg/mL): 1 µg/mL | MIC ATB in combination ([4]; KPN BAA-1898, AF1 @ 8 μg/mL): <=0.25 μg/mL | MIC ATB in combination ([4]; KPN LIB, AF1 @ 4 μg/mL): <=0.25 μg/mL | MIC ATB in combination ([4]; KPN LIB, AF1 @ 8 μg/mL): <=0.25 μg/mL | MIC ATB in combination ([4]; KPN UFR22_O, AF1 @ 4 μg/mL): <=0.25 μg/mL | MIC ATB in combination ([4]; KPN UFR22_O, AF1 @ 8 μg/mL): <=0.25 μg/mL | MIC ATB in combination ([4]; KPN UFR23, AF1 @ 4 μg/mL): <=0.25 μg/mL | MIC ATB in combination ([4]; KPN UFR23, AF1 @ 8 μg/mL): <=0.25 μg/mL | MIC ATB in combination ([4]; KPN UFR24, AF1 @ 4 μg/mL): 1 µg/mL | MIC ATB in combination ([4]; KPN UFR24, AF1 @ 8 μg/mL): 0.5 µg/mL | MIC ATB in combination ([4]; KPN UFR25, AF1 @ 4 μg/mL): 0.5 µg/mL | MIC ATB in combination ([4]; KPN UFR25, AF1 @ 8 μg/mL): <=0.25 μg/mL | MIC ATB in combination ([4]; KPN UFR27, AF1 @ 4 μg/mL): 4 µg/mL | MIC ATB in combination ([4]; KPN UFR27, AF1 @ 8 μg/mL): 0.5 µg/mL | MIC ATB in combination ([4]; KPN UFR28, AF1 @ 4 μg/mL): <=0.25 μg/mL | MIC ATB in combination ([4]; KPN UFR28, AF1 @ 8 μg/mL): <=0.25 μg/mL | MIC ATB in combination ([4]; KPN UFR65, AF1 @ 4 μg/mL): 2 µg/mL | MIC ATB in combination ([4]; KPN UFR65, AF1 @ 8 μg/mL): <=0.25 μg/mL | MIC ATB in combination ([4]; KPN UFR66, AF1 @ 4 μg/mL): 8 µg/mL | MIC ATB in combination ([4]; KPN UFR66, AF1 @ 8 μg/mL): <=0.25 μg/mL | MIC ATB in combination ([4]; KPN UFR67, AF1 @ 4 μg/mL): 16 µg/mL | MIC ATB in combination ([4]; KPN UFR67, AF1 @ 8 μg/mL): 4 µg/mL | MIC ATB in combination ([4]; KPN UFR68, AF1 @ 4 μg/mL): 4 µg/mL
